Data: ChEMBL document CHEMBL3525953, “In vitro cytochrome P450-mediated metabolism of exemestane” (Drug Metab Dispos, 2011)

Assays:
Format in all cases: ADME
Cytochrome P450 3A5 = Cytochrome P450 3A5 (Homo sapiens, UniProt P20815); assay: Drug metabolism assessed as human recombinant CYP3A5-mediated 17-hydroexemestane formation rate per pmol of enzyme at 10 uM after 10 mins
Cytochrome P450 2A6 = biological target: T1, Cytochrome P450 2A6 (Homo sapiens, UniProt P11509); assay: Drug metabolism assessed as human recombinant CYP2A6-mediated 17-hydroexemestane formation rate per pmol of enzyme at 10 uM after 10 mins
T1 sequence (P11509 whole entry): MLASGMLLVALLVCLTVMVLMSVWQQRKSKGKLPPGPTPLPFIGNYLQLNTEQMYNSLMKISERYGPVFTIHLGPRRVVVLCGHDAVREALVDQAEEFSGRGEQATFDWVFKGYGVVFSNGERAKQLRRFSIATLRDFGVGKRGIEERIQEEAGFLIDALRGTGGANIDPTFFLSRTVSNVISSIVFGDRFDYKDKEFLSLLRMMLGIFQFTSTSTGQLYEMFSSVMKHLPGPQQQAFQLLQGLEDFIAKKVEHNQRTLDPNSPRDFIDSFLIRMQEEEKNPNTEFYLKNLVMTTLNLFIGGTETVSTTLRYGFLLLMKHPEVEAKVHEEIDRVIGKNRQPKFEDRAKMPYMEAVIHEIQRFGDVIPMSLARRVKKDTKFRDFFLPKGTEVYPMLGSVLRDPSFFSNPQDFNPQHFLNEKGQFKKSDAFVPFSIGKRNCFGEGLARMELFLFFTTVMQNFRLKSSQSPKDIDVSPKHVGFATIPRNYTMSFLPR

Cytochrome P450 2B6 [1] = biological target: T2, Cytochrome P450 2B6 (Homo sapiens, UniProt P20813); assay: Drug metabolism assessed as human recombinant CYP2B6-mediated 17-hydroexemestane formation at 10 uM after 10 mins by Michaelis-Menten saturation curve analysis; conditions: recombinant enzyme
T2 sequence (P20813 whole entry): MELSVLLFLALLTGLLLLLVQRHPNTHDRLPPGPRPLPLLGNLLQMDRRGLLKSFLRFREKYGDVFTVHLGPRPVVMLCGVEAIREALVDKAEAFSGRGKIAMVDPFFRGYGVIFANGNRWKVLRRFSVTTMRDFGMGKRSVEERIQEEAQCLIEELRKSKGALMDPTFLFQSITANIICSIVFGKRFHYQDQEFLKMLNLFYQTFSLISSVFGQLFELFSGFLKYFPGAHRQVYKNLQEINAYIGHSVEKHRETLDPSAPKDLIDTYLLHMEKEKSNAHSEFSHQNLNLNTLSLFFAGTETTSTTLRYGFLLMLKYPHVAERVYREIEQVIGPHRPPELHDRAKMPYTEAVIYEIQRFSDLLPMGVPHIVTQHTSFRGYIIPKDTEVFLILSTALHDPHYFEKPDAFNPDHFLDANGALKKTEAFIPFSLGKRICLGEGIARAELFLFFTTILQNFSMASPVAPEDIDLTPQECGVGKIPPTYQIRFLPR

Cytochrome P450 2B6 [2] = biological target: T2, Cytochrome P450 2B6; assay: Drug metabolism assessed as human recombinant CYP2B6-mediated 17-hydroexemestane formation rate per pmol of enzyme at 10 uM after 10 mins
Cytochrome P450 2C9 = Cytochrome P450 2C9 (Homo sapiens, UniProt P11712); assay: Drug metabolism assessed as human recombinant CYP2C9-mediated 17-hydroexemestane formation rate per pmol of enzyme at 10 uM after 10 mins
Cytochrome P450 2C9, sequence (P11712 whole entry): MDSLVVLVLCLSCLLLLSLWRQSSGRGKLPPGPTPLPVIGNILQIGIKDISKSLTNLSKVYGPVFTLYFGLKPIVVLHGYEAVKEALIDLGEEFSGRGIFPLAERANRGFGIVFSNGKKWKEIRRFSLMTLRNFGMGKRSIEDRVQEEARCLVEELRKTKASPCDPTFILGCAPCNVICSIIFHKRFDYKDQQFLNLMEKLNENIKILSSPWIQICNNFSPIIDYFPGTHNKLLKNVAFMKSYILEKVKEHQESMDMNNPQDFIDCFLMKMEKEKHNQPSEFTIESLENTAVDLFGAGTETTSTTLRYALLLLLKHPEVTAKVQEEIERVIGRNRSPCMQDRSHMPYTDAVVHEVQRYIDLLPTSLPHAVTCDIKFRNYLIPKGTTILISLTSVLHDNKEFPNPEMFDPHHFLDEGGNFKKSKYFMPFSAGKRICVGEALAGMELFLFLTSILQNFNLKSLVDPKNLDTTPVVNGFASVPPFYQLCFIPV

Cytochrome P450 3A5, sequence (P20815 whole entry): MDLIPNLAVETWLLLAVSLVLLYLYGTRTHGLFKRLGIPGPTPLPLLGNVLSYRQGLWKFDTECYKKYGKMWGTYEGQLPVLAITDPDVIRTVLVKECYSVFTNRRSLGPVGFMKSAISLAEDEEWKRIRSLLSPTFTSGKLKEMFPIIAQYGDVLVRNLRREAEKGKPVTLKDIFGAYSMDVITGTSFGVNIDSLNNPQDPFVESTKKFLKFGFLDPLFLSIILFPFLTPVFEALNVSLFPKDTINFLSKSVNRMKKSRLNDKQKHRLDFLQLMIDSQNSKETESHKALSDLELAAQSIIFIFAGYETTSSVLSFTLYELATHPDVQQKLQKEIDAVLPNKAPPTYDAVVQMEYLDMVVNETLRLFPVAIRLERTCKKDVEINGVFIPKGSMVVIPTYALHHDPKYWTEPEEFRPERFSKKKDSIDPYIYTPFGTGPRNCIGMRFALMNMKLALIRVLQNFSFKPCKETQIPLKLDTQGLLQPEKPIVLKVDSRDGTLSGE

C=C1C[C@@H]2[C@H](CC[C@]3(C)C(O)CC[C@@H]23)[C@@]2(C)C=CC(=O)C=C12 (stereo partly specified)
Drug metabolism (Cytochrome P450 3A5): 0.21 pmol/min | Drug metabolism (Cytochrome P450 2A6): 0.51 pmol/min | Vmax(app) (Cytochrome P450 2B6 [1]): 3.9 pmol/mg/min | Km (Cytochrome P450 2B6 [1]; read-out: Km(app)): 177 µM | Drug metabolism (Cytochrome P450 2B6 [2]): 0.3 pmol/min | Drug metabolism (Cytochrome P450 2C9): metabolite_not_detected
